Assay results reported in patent US20110287982A1, “CELL CULTURE DEVICE” (priority 2008, published 2011).

Test system: cardiac tissue generated from cardiomyocytes derived from human ESCs
Test: Electrophysiological recordings of cardiac tissue (CardioSpot) on porous multi-electrode arrays
Assay type: cell-based
Conditions: for repolarising potential (delay measured from the first signal): 30 nM E4031, control 140 ms
Description: Beating aggregates are maintained at room temperature in cryo-vials full of culture medium (Human cardiovascular progenitor cells develop from a KDR+embryonic-stem-cell-derived population. Yang L, et al., (2008). […] Culture Medium-StemPro 34 and 10 ng/mL VEGF CardioSpot made using primary or stem cell derived cardiomyocytes are placed onto the porous MEAs. Electrophysiological recordings were performed either through the supporting membrane or from under the membrane in order to get a direct contact of the tissues with recording electrodes. Control recording were performed using the culture medium as well a the solution used for reference molecules ([…], and lidocaine) Pharmacological experiments were carried out using reference compounds to characterise and validate the cardiac tissue generated from cardiomyocytes derived from human ESCs and engineered using the method of invention.

| SMILES | decrease of the amplitude of the electrophysiological signals (30 uM lidocaine, after 6 minutes) | amplitude of the first signal (predominantly dependent of sodium channel opening) (lidocaine, within few minutes) | repolarising potential (delay measured from the first signal) (after 5 min) | repolarising potential (delay measured from the first signal) (after 15 min) |
| --- | --- | --- | --- | --- |
| CCN(CC)CC(=O)Nc1c(C)cccc1C [lidocaine] | 50% | dramatic decrease |  |  |
| Cc1cccc(CCN2CCC(C(=O)c3ccc(NS(C)(=O)=O)cc3)CC2)n1 [E4031] |  |  | 155 ms | 173 ms |
